Experimental data as given in the NIST ThermoML archive (doi:10.1021/je700546r).
Where “and” joins values, the source holds several entries; their conditions need not be identical. Identical values can stand only once. ± gives the expanded uncertainty stated by the source.

Experiment: molar heat capacity at saturation pressure
Conditions: Crystal 3, Small (less than 1 g) adiabatic calorimetry

ON=C1CCCCC1 [cyclohexanone oxime]
Conditions | molar heat capacity
4.9 K | 0.339 ± 0.021 J/K/mol
5.136 K | 0.3967 ± 0.022 J/K/mol
5.378 K | 0.4649 ± 0.023 J/K/mol
5.624 K | 0.5419 ± 0.025 J/K/mol
5.878 K | 0.6278 ± 0.026 J/K/mol
6.165 K | 0.7333 ± 0.028 J/K/mol
6.485 K | 0.8621 ± 0.031 J/K/mol
6.812 K | 1.006 ± 0.034 J/K/mol
7.147 K | 1.167 ± 0.038 J/K/mol
7.488 K | 1.338 ± 0.042 J/K/mol
7.836 K | 1.53 ± 0.046 J/K/mol
8.187 K | 1.735 ± 0.051 J/K/mol
8.542 K | 1.956 ± 0.055 J/K/mol
8.902 K | 2.19 ± 0.061 J/K/mol
9.268 K | 2.438 ± 0.066 J/K/mol
9.636 K | 2.708 ± 0.072 J/K/mol
10 K | 2.981 ± 0.059 J/K/mol
10.48 K | 3.361 ± 0.064 J/K/mol
11.06 K | 3.83 ± 0.07 J/K/mol
11.64 K | 4.325 ± 0.077 J/K/mol
12.23 K | 4.854 ± 0.084 J/K/mol
12.83 K | 5.408 ± 0.091 J/K/mol
13.43 K | 5.992 ± 0.099 J/K/mol
14.03 K | 6.572 ± 0.11 J/K/mol
14.64 K | 7.153 ± 0.11 J/K/mol
15.26 K | 7.796 ± 0.12 J/K/mol
15.98 K | 8.601 ± 0.13 J/K/mol
16.81 K | 9.497 ± 0.14 J/K/mol
17.65 K | 10.37 ± 0.15 J/K/mol
18.49 K | 11.28 ± 0.16 J/K/mol
19.34 K | 12.18 ± 0.17 J/K/mol
20.19 K | 13.08 ± 0.14 J/K/mol
21.32 K | 14.35 ± 0.14 J/K/mol
22.74 K | 15.89 ± 0.15 J/K/mol
24.16 K | 17.46 ± 0.16 J/K/mol
25.59 K | 19 ± 0.17 J/K/mol
27.02 K | 20.5 ± 0.17 J/K/mol
28.49 K | 22 ± 0.17 J/K/mol
30.12 K | 23.63 ± 0.18 J/K/mol
31.73 K | 25.22 ± 0.19 J/K/mol
33.5 K | 26.88 ± 0.2 J/K/mol
35.28 K | 28.48 ± 0.21 J/K/mol
37.06 K | 30.01 ± 0.21 J/K/mol
38.84 K | 31.47 ± 0.22 J/K/mol
40.63 K | 32.89 ± 0.23 J/K/mol
42.51 K | 34.38 ± 0.24 J/K/mol
44.49 K | 35.9 ± 0.24 J/K/mol
46.48 K | 37.34 ± 0.25 J/K/mol
48.47 K | 38.76 ± 0.26 J/K/mol
50.46 K | 40.11 ± 0.27 J/K/mol
52.45 K | 41.42 ± 0.27 J/K/mol
54.45 K | 42.64 ± 0.28 J/K/mol
56.45 K | 43.84 ± 0.29 J/K/mol
58.46 K | 45.02 ± 0.29 J/K/mol
60.47 K | 46.16 ± 0.3 J/K/mol
62.48 K | 47.28 ± 0.3 J/K/mol
64.5 K | 48.37 ± 0.31 J/K/mol
66.51 K | 49.44 ± 0.32 J/K/mol
68.52 K | 50.51 ± 0.32 J/K/mol
70.54 K | 51.55 ± 0.33 J/K/mol
72.56 K | 52.59 ± 0.33 J/K/mol
74.59 K | 53.59 ± 0.34 J/K/mol
76.61 K | 54.6 ± 0.34 J/K/mol
78.65 K | 55.6 ± 0.35 J/K/mol
79.94 K | 56.26 ± 0.35 J/K/mol
80.68 K | 56.58 ± 0.35 J/K/mol
81.67 K | 57.04 ± 0.35 J/K/mol
82.2 K | 57.24 ± 0.36 J/K/mol
82.71 K | 57.54 ± 0.36 J/K/mol
83.39 K | 57.84 ± 0.36 J/K/mol
84.24 K | 58.2 ± 0.36 J/K/mol
84.75 K | 58.47 ± 0.36 J/K/mol
85.1 K | 58.59 ± 0.36 J/K/mol
86.15 K | 59.05 ± 0.37 J/K/mol
86.83 K | 59.4 ± 0.37 J/K/mol
88.07 K | 59.96 ± 0.37 J/K/mol
88.55 K | 60.2 ± 0.37 J/K/mol
90 K | 60.85 ± 0.4 J/K/mol
90.28 K | 61.01 ± 0.4 J/K/mol
91.95 K | 61.75 ± 0.4 J/K/mol
92.01 K | 61.8 ± 0.4 J/K/mol
93.75 K | 62.62 ± 0.41 J/K/mol
93.89 K | 62.67 ± 0.41 J/K/mol
95.49 K | 63.42 ± 0.41 J/K/mol
95.85 K | 63.56 ± 0.41 J/K/mol
97.23 K | 64.21 ± 0.41 J/K/mol
97.81 K | 64.45 ± 0.41 J/K/mol
98.97 K | 65.03 ± 0.42 J/K/mol
99.77 K | 65.37 ± 0.42 J/K/mol
100.72 K | 65.83 ± 0.42 J/K/mol
101.74 K | 66.25 ± 0.42 J/K/mol
102.52 K | 66.6 ± 0.42 J/K/mol
103.72 K | 67.14 ± 0.43 J/K/mol
104.37 K | 67.44 ± 0.43 J/K/mol
105.7 K | 68.04 ± 0.43 J/K/mol
106.23 K | 68.29 ± 0.43 J/K/mol
107.69 K | 68.92 ± 0.43 J/K/mol
108.09 K | 69.08 ± 0.44 J/K/mol
109.68 K | 69.81 ± 0.44 J/K/mol
109.95 K | 69.92 ± 0.44 J/K/mol
111.68 K | 70.69 ± 0.44 J/K/mol
111.81 K | 70.76 ± 0.44 J/K/mol
113.68 K | 71.57 ± 0.45 J/K/mol and 71.56 ± 0.45 J/K/mol
115.55 K | 72.37 ± 0.45 J/K/mol
115.69 K | 72.45 ± 0.45 J/K/mol
117.41 K | 73.2 ± 0.46 J/K/mol
117.7 K | 73.35 ± 0.46 J/K/mol
119.29 K | 74.03 ± 0.46 J/K/mol
119.71 K | 74.22 ± 0.46 J/K/mol
121.16 K | 74.85 ± 0.46 J/K/mol
121.72 K | 75.08 ± 0.46 J/K/mol
123.03 K | 75.63 ± 0.47 J/K/mol
123.73 K | 75.98 ± 0.47 J/K/mol
124.91 K | 76.46 ± 0.47 J/K/mol
125.75 K | 76.86 ± 0.47 J/K/mol
126.79 K | 77.29 ± 0.47 J/K/mol
127.76 K | 77.72 ± 0.48 J/K/mol
128.67 K | 78.11 ± 0.48 J/K/mol
129.79 K | 78.6 ± 0.48 J/K/mol
130.55 K | 78.91 ± 0.48 J/K/mol
131.81 K | 79.49 ± 0.48 J/K/mol
132.43 K | 79.75 ± 0.49 J/K/mol
133.83 K | 80.38 ± 0.49 J/K/mol
134.31 K | 80.58 ± 0.49 J/K/mol
135.86 K | 81.28 ± 0.49 J/K/mol
136.2 K | 81.42 ± 0.49 J/K/mol
137.88 K | 82.16 ± 0.5 J/K/mol
138.09 K | 82.25 ± 0.5 J/K/mol
139.9 K | 83.05 ± 0.5 J/K/mol
139.98 K | 83.08 ± 0.5 J/K/mol
141.87 K | 83.93 ± 0.51 J/K/mol
141.92 K | 83.95 ± 0.51 J/K/mol
143.76 K | 84.77 ± 0.51 J/K/mol
143.95 K | 84.85 ± 0.51 J/K/mol
145.65 K | 85.62 ± 0.51 J/K/mol
145.97 K | 85.73 ± 0.52 J/K/mol
147.54 K | 86.49 ± 0.52 J/K/mol
148 K | 86.67 ± 0.52 J/K/mol
149.44 K | 87.35 ± 0.52 J/K/mol
150.03 K | 87.59 ± 0.52 J/K/mol
151.34 K | 88.17 ± 0.53 J/K/mol
152.05 K | 88.52 ± 0.53 J/K/mol
153.24 K | 89.05 ± 0.53 J/K/mol
154.08 K | 89.42 ± 0.53 J/K/mol
155.13 K | 89.89 ± 0.54 J/K/mol
156.1 K | 90.34 ± 0.54 J/K/mol
157.03 K | 90.77 ± 0.54 J/K/mol
158.12 K | 91.27 ± 0.54 J/K/mol
158.93 K | 91.65 ± 0.54 J/K/mol
160.13 K | 92.24 ± 0.55 J/K/mol
160.83 K | 92.53 ± 0.55 J/K/mol
162.15 K | 93.18 ± 0.55 J/K/mol
162.73 K | 93.45 ± 0.55 J/K/mol
164.16 K | 94.14 ± 0.56 J/K/mol
164.63 K | 94.35 ± 0.56 J/K/mol
166.17 K | 95.08 ± 0.56 J/K/mol
166.54 K | 95.25 ± 0.56 J/K/mol
168.18 K | 96.07 ± 0.56 J/K/mol
168.44 K | 96.2 ± 0.56 J/K/mol
170.18 K | 97.05 ± 0.57 J/K/mol
170.35 K | 97.13 ± 0.57 J/K/mol
172.19 K | 98.05 ± 0.57 J/K/mol
172.26 K | 98.07 ± 0.57 J/K/mol
174.17 K | 99.06 ± 0.58 J/K/mol
174.19 K | 99.05 ± 0.58 J/K/mol
176.08 K | 100.02 ± 0.58 J/K/mol
176.19 K | 100.08 ± 0.58 J/K/mol
177.99 K | 101.03 ± 0.59 J/K/mol
178.2 K | 101.13 ± 0.59 J/K/mol
179.9 K | 102.04 ± 0.59 J/K/mol
180.2 K | 102.17 ± 0.59 J/K/mol
181.81 K | 103.07 ± 0.6 J/K/mol
182.19 K | 103.23 ± 0.6 J/K/mol
183.72 K | 104.11 ± 0.61 J/K/mol
184.18 K | 104.31 ± 0.61 J/K/mol
185.64 K | 105.14 ± 0.61 J/K/mol
186.16 K | 105.44 ± 0.61 J/K/mol
187.55 K | 106.25 ± 0.62 J/K/mol
188.14 K | 106.57 ± 0.62 J/K/mol
189.46 K | 107.37 ± 0.62 J/K/mol
190.12 K | 107.71 ± 0.62 J/K/mol
191.37 K | 108.48 ± 0.62 J/K/mol
192.1 K | 108.92 ± 0.63 J/K/mol
193.29 K | 109.62 ± 0.63 J/K/mol
194.08 K | 110.15 ± 0.63 J/K/mol
195.2 K | 110.84 ± 0.63 J/K/mol
196.05 K | 111.36 ± 0.64 J/K/mol
197.13 K | 112.05 ± 0.64 J/K/mol
198.02 K | 112.6 ± 0.64 J/K/mol
199.05 K | 113.28 ± 0.64 J/K/mol
199.97 K | 113.87 ± 0.65 J/K/mol
200.97 K | 114.62 ± 0.65 J/K/mol
202 K | 115.31 ± 0.66 J/K/mol
202.89 K | 116 ± 0.66 J/K/mol
203.92 K | 116.79 ± 0.67 J/K/mol
204.81 K | 117.51 ± 0.67 J/K/mol
205.74 K | 118.31 ± 0.67 J/K/mol
206.72 K | 119.13 ± 0.68 J/K/mol
207.56 K | 119.91 ± 0.68 J/K/mol
208.63 K | 120.93 ± 0.68 J/K/mol
209.36 K | 121.66 ± 0.69 J/K/mol
210.55 K | 122.71 ± 0.69 J/K/mol
211.17 K | 123.38 ± 0.69 J/K/mol
212.46 K | 124.68 ± 0.7 J/K/mol
212.97 K | 125.27 ± 0.7 J/K/mol
214.38 K | 126.63 ± 0.71 J/K/mol
214.76 K | 127.11 ± 0.72 J/K/mol
216.3 K | 128.63 ± 0.72 J/K/mol
216.54 K | 128.94 ± 0.73 J/K/mol
217 K | 129.41 ± 0.73 J/K/mol
217.73 K | 130.26 ± 0.73 J/K/mol
218.21 K | 130.69 ± 0.73 J/K/mol
218.32 K | 130.87 ± 0.73 J/K/mol
218.98 K | 131.5 ± 0.74 J/K/mol
219.5 K | 132.12 ± 0.74 J/K/mol
220.09 K | 132.7 ± 0.74 J/K/mol
220.14 K | 132.72 ± 0.74 J/K/mol
220.87 K | 133.52 ± 0.74 J/K/mol
221.26 K | 133.99 ± 0.75 J/K/mol
222.06 K | 134.69 ± 0.75 J/K/mol
222.75 K | 135.43 ± 0.75 J/K/mol
223.02 K | 135.78 ± 0.75 J/K/mol
